# Reference: patent US7906506B2, “Substituted chiral fused [1,2] imidazo [4,5-c] ring compounds and methods” (3M Innovative Properties Company, priority 2006, dated 2011)
row,SMILES,melting point [°C]
1,"CC1OC[C@H](C)n2c1nc1c(N)nc3ccccc3c12 (stereo partly drawn) [Example 1, (11S)-8,11-Dimethyl-10,11-dihydro-8H-[1,4]oxazino[4′,3′:1,2]imidazo[4,5-c]quinolin-6-amine]",218 to 223
2,"CCCC1OC[C@H](C)n2c1nc1c(N)nc3ccccc3c12 (stereo partly drawn) [Example 2, (11S)-1-Methyl-8-propyl-10,11-dihydro-8H-[1,4]oxazino[4′,3′:1,2]imidazo[4,5-c]quinolin-6-amine]",243 to 268
